The source of these data is patent US9598433B2, “Hepatitis C virus inhibitors” (BRISTOL-MYERS SQUIBB COMPANY, priority 2012, dated 2017).

The test system of assay [1] is HCV genotype 1b (Con1) replicon in HUH-7 cells. In words: HCV replicon luciferase reporter assay, genotype 1b. The format is cell-based. To be noted: Hepatitis C virus, 72 h, genotype 1b replicon, 3 days incubation. The gist of the method:
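The HUH-7 cells stably carried a genotype 1b Con1 replicon with a Renilla luciferase reporter and the S1179I adaptive mutation. Luminescence was read after 2 h with 7.5 μM EnduRen, and EC50s came from four-parameter logistic fits.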

The test system of assay [2] is HCV genotype 1a (H77 strain) replicon in HUH-7 cells. In words: HCV replicon luciferase reporter assay, genotype 1a. In kind it is cell-based. To be noted: Hepatitis C virus, 72 h, genotype 1a replicon, 3 days incubation. The gist of the method:
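Stable HUH-7 line carrying luciferase-reporter genotype 1a (H77) replicon with adaptive NS3 P1496L and NS5A S2204I mutations; 3.0×10^3 cells/well in 4% FCS, 0.5% DMSO, twenty-point 3-fold titration, 3 days at 37 °C. Renilla luminescence with 7.5 μM EnduRen; EC50 by four-parameter logistic fit; CC50 by multiplexed Cell Titer-Blue.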

Read-outs that look alike come from different tables or passages of the source.

As to `COc1ccc2c(O[C@@H]3C[C@H]4C(=O)N[C@]5(C(=O)NS(=O)(=O)C6(CF)CC6)C[C@H]5/C=C\CC[C@@H](C)O[C@@H](C)[C@H](NC(=O)OC(C)(C)C(C)(F)F)C(=O)N4C3)nccc2c1` [Compound 2014, 3,3-difluoro-2-methylbutan-2-yl ((2R,6S,7S,9R,13aS,14aR,16aS,Z)-14a-(((1-(fluoromethyl)cyclopropyl)sulfonyl)carbamoyl)-2-((6-methoxyisoquinolin-1-yl)oxy)-7,9-dimethyl-5,16-dioxo-2,3,5,6,7,9,10,11,13a,14,14a,15,16,16a-tetradecahydro-1H-cyclopropa[i]pyrrolo[1,2-e][1,5,8]oxadiazacyclopentadecin-6-yl)carbamate], the EC50 is 0.66 nM in assay [1] (read-out: LE_1b (EC50)); 0.51 to 1 nM in assay [1] (read-out: LE_1b (EC50, range)); 2.38 nM in assay [2] (read-out: LE_1a (EC50)); 1.01 to 5 nM in assay [2] (read-out: LE_1a (EC50, range)).

In the case of `COc1cnc(O[C@@H]2C[C@H]3C(=O)N[C@]4(C(=O)NS(=O)(=O)C5(CF)CC5)C[C@H]4/C=C\CC[C@@H](C)O[C@@H](C)[C@H](NC(=O)OC(C)(C)C(F)(F)F)C(=O)N3C2)c2ccccc12` [Compound 2015, 1,1,1-trifluoro-2-methylpropan-2-yl ((2R,6S,7S,9R,13a5,14aR,16aS,Z)-14a-(((1-(fluoromethyl)cyclopropyl)sulfonyl)carbamoyl)-2-((4-methoxyisoquinolin-1-yl)oxy)-7,9-dimethyl-5,16-dioxo-2,3,5,6,7,9,10,11,13a,14,14a,15,16,16a-tetradecahydro-1H-cyclopropa[i]pyrrolo[1,2-e][1,5,8]oxadiazacyclopentadecin-6-yl)carbamate], the EC50 lay within 0.51 to 1 nM in assay [1] (read-out: LE_1b (EC50, range)) and 1.01 to 5 nM in assay [2] (read-out: LE_1a (EC50, range)).

For `COc1cnc(O[C@@H]2C[C@H]3C(=O)N[C@]4(C(=O)NS(=O)(=O)C5(CF)CC5)C[C@H]4/C=C\CC[C@@H](C)O[C@@H](C)[C@H](NC(=O)OC(C)(C)C(F)F)C(=O)N3C2)c2ccccc12` [Compound 2016, 1,1-difluoro-2-methylpropan-2-yl ((2R,6S,7S,9R,13aS,14aR,16aS,Z)-14a-(((1-(fluoromethyl)cyclopropyl)sulfonyl)carbamoyl)-2-((4-methoxyisoquinolin-1-yl)oxy)-7,9-dimethyl-5,16-dioxo-2,3,5,6,7,9,10,11,13a,14,14a,15,16,16a-tetradecahydro-1H-cyclopropa[i]pyrrolo[1,2-e][1,5,8]oxadiazacyclopentadecin-6-yl)carbamate], the EC50 in assay [1] (read-out: LE_1b (EC50, range)) lay in the range of 0.51 to 1 nM; in assay [2] (read-out: LE_1a (EC50, range)), 1.01 to 5 nM.

Consider `COc1cc(F)cc2c(O[C@@H]3C[C@H]4C(=O)N[C@]5(C(=O)NS(=O)(=O)C6(C)CC6)C[C@H]5/C=C\CC[C@@H](C)O[C@@H](C)[C@H](NC(=O)OC(C)(C)C(F)(F)F)C(=O)N4C3)nccc12` [Compound 2017, 1,1,1-trifluoro-2-methylpropan-2-yl ((2R,6S,7S,9R,13aS,14aR,16aS,Z)-2-((7-fluoro-5-methoxyisoquinolin-1-yl)oxy)-7,9-dimethyl-14a-(((1-methylcyclopropyl)sulfonyl)carbamoyl)-5,16-dioxo-2,3,5,6,7,9,10,11,13a,14,14a,15,16,16a-tetradecahydro-1H-cyclopropa[i]pyrrolo[1,2-e][1,5,8]oxadiazacyclopentadecin-6-yl)carbamate], for which the EC50 in assay [1] (read-out: LE_1b (EC50)) is 0.42 nM; in assay [1] (read-out: LE_1b (EC50, range)), 0.1 to 0.5 nM; in assay [2] (read-out: LE_1a (EC50)), 0.89 nM; in assay [2] (read-out: LE_1a (EC50, range)) it was 0.51 to 1 nM.

Regarding `COc1cc(F)cc2c(O[C@@H]3C[C@H]4C(=O)N[C@]5(C(=O)NS(=O)(=O)C6(C)CC6)C[C@H]5/C=C\CC[C@@H](C)O[C@@H](C)[C@H](NC(=O)OC(C)(C)C(C)(F)F)C(=O)N4C3)nccc12` [Compound 2018, 3,3-difluoro-2-methylbutan-2-yl ((2R,6S,7S,9R,13aS,14aR,16aS,Z)-2-((7-fluoro-5-methoxyisoquinolin-1-yl)oxy)-7,9-dimethyl-14a-(((1-methylcyclopropyl)sulfonyl)carbamoyl)-5,16-dioxo-2,3,5,6,7,9,10,11,13a,14,14a,15,16,16a-tetradecahydro-1H-cyclopropa[i]pyrrolo[1,2-e][1,5,8]oxadiazacyclopentadecin-6-yl)carbamate], the EC50 in assay [1] (read-out: LE_1b (EC50, range)) was in the range of 0.1 to 0.5 nM; in assay [2] (read-out: LE_1a (EC50, range)) it was 0.51 to 1 nM.

For the compound `COc1cc(F)cc2c(O[C@@H]3C[C@H]4C(=O)N[C@]5(C(=O)NS(=O)(=O)C6(C)CC6)C[C@H]5/C=C\CC[C@@H](C)O[C@@H](C)[C@H](NC(=O)OC(C)(C)C(F)F)C(=O)N4C3)nccc12` [Compound 2019, 1,1-difluoro-2-methylpropan-2-yl ((2R,6S,7S,9R,13aS,14aR,16aS,Z)-2-((7-fluoro-5-methoxyisoquinolin-1-yl)oxy)-7,9-dimethyl-14a-(((1-methylcyclopropyl)sulfonyl)carbamoyl)-5,16-dioxo-2,3,5,6,7,9,10,11,13a,14,14a,15,16,16a-tetradecahydro-1H-cyclopropa[i]pyrrolo[1,2-e][1,5,8]oxadiazacyclopentadecin-6-yl)carbamate], the EC50 lay within 0.51 to 1 nM in assay [1] (read-out: LE_1b (EC50, range)) and 1.01 to 5 nM in assay [2] (read-out: LE_1a (EC50, range)).

Take `COc1cc(F)cc2c(O[C@@H]3C[C@H]4C(=O)N[C@]5(C(=O)NS(=O)(=O)C6(CF)CC6)C[C@H]5/C=C\CC[C@@H](C)O[C@@H](C)[C@H](NC(=O)OC(C)(C)C(F)(F)F)C(=O)N4C3)nccc12` [Compound 2020, 1,1,1-trifluoro-2-methylpropan-2-yl ((2R,6S,7S,9R,13aS,14aR,16aS,Z)-2-((7-fluoro-5-methoxyisoquinolin-1-yl)oxy)-14a-(((1-(fluoromethyl)cyclopropyl)sulfonyl)carbamoyl)-7,9-dimethyl-5,16-dioxo-2,3,5,6,7,9,10,11,13a,14,14a,15,16,16a-tetradecahydro-1H-cyclopropa[i]pyrrolo[1,2-e][1,5,8]oxadiazacyclopentadecin-6-yl)carbamate]: the EC50 in assay [1] (read-out: LE_1b (EC50, range)) lay within 0.51 to 1 nM; in assay [2] (read-out: LE_1a (EC50, range)), 1.01 to 5 nM.

Consider `COc1cc(F)cc2c(O[C@@H]3C[C@H]4C(=O)N[C@]5(C(=O)NS(=O)(=O)C6(CF)CC6)C[C@H]5/C=C\CC[C@@H](C)O[C@@H](C)[C@H](NC(=O)OC(C)(C)C(C)(F)F)C(=O)N4C3)nccc12` [Compound 2021, 3,3-difluoro-2-methylbutan-2-yl ((2R,6S,7S,9R,13aS,14aR,16aS,Z)-2-((7-fluoro-5-methoxyisoquinolin-1-yl)oxy)-14a-(((1-(fluoromethyl)cyclopropyl)sulfonyl)carbamoyl)-7,9-dimethyl-5,16-dioxo-2,3,5,6,7,9,10,11,13a,14,14a,15,16,16a-tetradecahydro-1H-cyclopropa[i]pyrrolo[1,2-e][1,5,8]oxadiazacyclopentadecin-6-yl)carbamate], for which the EC50 fell in the range of 0.51 to 1 nM in assay [1] (read-out: LE_1b (EC50, range)) and 1.01 to 5 nM in assay [2] (read-out: LE_1a (EC50, range)).

Turning to `COc1cc(F)cc2c(O[C@@H]3C[C@H]4C(=O)N[C@]5(C(=O)NS(=O)(=O)C6(CF)CC6)C[C@H]5/C=C\CC[C@@H](C)O[C@@H](C)[C@H](NC(=O)OC(C)(C)C(F)F)C(=O)N4C3)nccc12` [Compound 2022, 1,1-difluoro-2-methylpropan-2-yl ((2R,6S,7S,9R,13aS,14aR,16aS,Z)-2-((7-fluoro-5-methoxyisoquinolin-1-yl)oxy)-14a-(((1-(fluoromethyl)cyclopropyl)sulfonyl)carbamoyl)-7,9-dimethyl-5,16-dioxo-2,3,5,6,7,9,10,11,13a,14,14a,15,16,16a-tetradecahydro-1H-cyclopropa[i]pyrrolo[1,2-e][1,5,8]oxadiazacyclopentadecin-6-yl)carbamate], the EC50 in assay [1] (read-out: LE_1b (EC50, range)) was in the range of 1.01 to 5 nM; in assay [2] (read-out: LE_1a (EC50, range)), 1.01 to 5 nM.
